In assay [1] the target is α-Chymotrypsin (Bos taurus, UniProt P00766). Nature of the assay: Inactivation of α-chymotrypsin: kon measured, Ki* = koff/kon calculated. It counts as biochemical. The settings on record: rate of inactivation kon = kobs/[I], value is kon x 10^-3.
Procedure: (§1) Thus, instead of measuring a Ki, a Ki* is calculated which is defined as the ratio of the koff/kon, the rate of reactivation of the enzyme to the rate of inactivation of the enzyme. The values of koff and kon are measured and Ki* is then calculated.
(§2) The rate of inactivation, kon, of enzymatic activity was determined for the compounds tested by measuring the enzyme activity of an aliquot of the respective enzyme as a function of time after addition of the test compound. […] The rate of inactivation is then equal to kon =(kobs)/([I]) [formula] where [I] is the concentration of the inhibiting compound.
(§3) The reactivation constant, koff, is similarly determined and the inhibition constant, Ki*, is then calculated as Ki * = koff /kon [formula]
For assay [2], the target named is T1, human leukocyte elastase (HLE) (Homo sapiens, UniProt P08246).
T1 sequence (P08246 30-267): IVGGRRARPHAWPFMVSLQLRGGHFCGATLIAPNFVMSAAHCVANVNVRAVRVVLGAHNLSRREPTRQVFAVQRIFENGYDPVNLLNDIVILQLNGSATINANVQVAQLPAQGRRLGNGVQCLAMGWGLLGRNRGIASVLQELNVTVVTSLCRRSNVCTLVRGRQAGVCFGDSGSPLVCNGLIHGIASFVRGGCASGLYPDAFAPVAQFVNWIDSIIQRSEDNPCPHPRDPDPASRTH
Briefly: Inactivation of human leukocyte elastase: kon measured, Ki* = koff/kon calculated. It counts as biochemical. Particulars: Elastase; for kinact/KI: rate of inactivation kon = kobs/[I], value is kon x 10^-3, read-out: 10^-3 x kon.
Procedure: as §1, §2, §3

The values below come from EP0471756B1, “SACCHARIN DERIVATIVES USEFUL AS PROTEOLYTIC ENZYME INHIBITORS AND PREPARATION THEREOF” (priority 1989, dated 1990).

Regarding `CC(=O)OCN1C(=O)c2c(C)cccc2S1(=O)=O` [Example 1, 2-acetoxymethyl-4-methylsaccharin], the results for the kinact/KI in assay [1] and in assay [2] were 1200 M⁻¹ s⁻¹ and 630 M⁻¹ s⁻¹, respectively.

Consider `O=C1c2ccccc2S(=O)(=O)N1C[S+]([O-])c1ncccn1` (stereo not drawn) [Example 13, 2-(2-pyrimidylsulfinylmethyl)saccharin], for which the kinact/KI in assay [1] was 2600 M⁻¹ s⁻¹; in assay [2], 300 M⁻¹ s⁻¹.

Consider `O=C1c2c(-c3ccccc3)cccc2S(=O)(=O)N1CCl` [Example 18, 2-chloromethyl-4-phenylsaccharin], for which the kinact/KI in assay [1] is 210 M⁻¹ s⁻¹; in assay [2], 1000 M⁻¹ s⁻¹.

Regarding `O=C1c2c(Cl)cccc2S(=O)(=O)N1CCl` [Example 3, 2-chloromethyl-4-chlorosaccharin], the kinact/KI in assay [1] is 5800 M⁻¹ s⁻¹; in assay [2], 450000 M⁻¹ s⁻¹.

`O=C1c2c(Cl)cccc2S(=O)(=O)N1Cn1nnn(-c2ccccc2)c1=S` [Example 5, 4-chloro-2-(4-phenyl-5-thioxotetrazolin-1-ylmethyl)saccharin]: the figures for the kinact/KI in assay [1] and in assay [2] were 6000 M⁻¹ s⁻¹ and 44000 M⁻¹ s⁻¹, respectively.

Turning to `Cn1nnnc1SCN1C(=O)c2ccccc2S1(=O)=O` [Example 8, 2-(1-methyl-1H-tetrazol-5-ylthiomethyl)saccharin], the figures for the kinact/KI in assay [1] and in assay [2] were 2100 M⁻¹ s⁻¹ and 1000 M⁻¹ s⁻¹, respectively. Also, in assay [2] (Ki* = koff/kon, not a truly reversible inhibition constant), the Ki is 81 nM.

For `O=C1c2ccccc2S(=O)(=O)N1CS(=O)(=O)c1ccccc1` [Example 12, 2-(phenylsulfonylmethyl)saccharin], the values for the kinact/KI in assay [1] and in assay [2] were 1100 M⁻¹ s⁻¹ and 970 M⁻¹ s⁻¹, respectively.

Turning to `CC(=O)Nc1cccc(-n2nnnc2SCN2C(=O)c3ccccc3S2(=O)=O)c1` [Example 6, 2-[1-(3-acetamidophenyl)-1H-tetrazol-5-ylthiomethyl]saccharin], the kinact/KI in assay [1] was 3700 M⁻¹ s⁻¹; in assay [2], 5500 M⁻¹ s⁻¹.

Take `O=C1c2ccccc2S(=O)(=O)N1CS(=O)(=O)c1ncccn1` [Example 14, 2-(2-pyrimidylsulfonylmethyl)saccharin]: the kinact/KI was 2800 M⁻¹ s⁻¹ in assay [1] and 600 M⁻¹ s⁻¹ in assay [2].

For the compound `O=C1c2ccccc2S(=O)(=O)N1C[S+]([O-])c1nnnn1-c1ccccc1` (stereo not drawn) [Example 10, 2-(1-phenyl-1H-tetrazol-5-ylsulfinylmethyl)saccharin], the kinact/KI in assay [1] and in assay [2] was 7000 M⁻¹ s⁻¹ in each case.

On to `CC(=O)OCN1C(=O)c2c(Cl)cccc2S1(=O)=O` [Example 2, 2-acetoxymethyl-4-chlorosaccharin], for which the kinact/KI in assay [1] is 2900 M⁻¹ s⁻¹; in assay [2] it was 4900 M⁻¹ s⁻¹.

For `CC(C)c1cccc2c1C(=O)N(CSc1nnnn1C)S2(=O)=O` [Example 30AN], the kinact/KI in assay [2] was 19000 M⁻¹ s⁻¹.

Take `O=C(O)CCC(=O)Nc1cccc(-n2nnnc2SCN2C(=O)c3ccccc3S2(=O)=O)c1` [Example 35, 2-[1-(3-succinoylaminophenyl)-1H-tetrazol-5-ylthiomethyl]saccharin]: the kinact/KI in assay [2] is 3600 M⁻¹ s⁻¹.

Consider `CC(C)c1cccc2c1C(=O)N(CCl)S2(=O)=O` [Example 22E], for which the kinact/KI in assay [2] is 4700 M⁻¹ s⁻¹.

Take `O=C1c2ccccc2S(=O)(=O)N1CSc1nnc(S)s1` [Example 30AH, 2-(5-mercapto-1,3,4-thiadiazol-2-ylthiomethyl)saccharin]: the kinact/KI in assay [2] is 1100 M⁻¹ s⁻¹.

As for `COC(=O)c1cccc2c1C(=O)N(CCl)S2(=O)=O` [Example 22G], the kinact/KI in assay [2] was 3000 M⁻¹ s⁻¹.

On to `CCOc1cccc2c1C(=O)N(CSc1nnnn1CC(=O)N(C)C)S2(=O)=O` [Example 30AX], for which the kinact/KI in assay [2] is 7500 M⁻¹ s⁻¹.

`CSc1nn(CN2C(=O)c3ccccc3S2(=O)=O)c(=S)s1` [Example 30AD]: the kinact/KI in assay [2] is 7000 M⁻¹ s⁻¹.
